Holding throughout (test): in vitro antibacterial test (M.I.C.)
Holding throughout (assay type): cell-based

One test has as its system S. albus. The note with it: Staphylococcus albus. An excerpt:
(§1) Die folgende Tabelle gibt die Resultate von in vitro Versuchen unter Verwendung von (1R)-1-(L-Pyroglutamyl-L-norvalyl-L-norvalylamirio)-ethylphosphonsäure gegen einige repräsentative pathogene Mikroorganismen wieder.

Another test deals with Shigella spp.
Excerpt: as §1

A further test relates to S. pyogenes. The note with it: Streptococcus pyogenes.
Excerpt: as §1

The next test concerns S. marcescens. The settings on record: Serratia marcescens.
Excerpt: as §1

For the next test, the system named is H. influenzae. The settings on record: Haemophilus influenzae.
Excerpt: as §1

The next test concerns S. faecalis. The settings on record: Enterococcus faecalis.
Excerpt: as §1

The subject of a further test is Klebsiella spp.
Excerpt: as §1

A further test concerns E. coli. The note with it: Escherichia coli.
Excerpt: as §1

The test system of a further test is Salmonella spp.
Excerpt: as §1

The next test concerns S. pneumoniae. The note with it: Streptococcus pneumoniae.
Excerpt: as §1

The source of these data is patent publication EP0026867A1, “Peptidylphosphonic acids, their preparation and use, and pharmaceutical preparations containing them” (F. HOFFMANN-LA ROCHE & CO. Aktiengesellschaft, priority 1979, dated 1981).

In brackets after ≈: the same amount, converted by molar mass.

Turning to `CCC[C@H](NC(=O)[C@@H]1CCC(=O)N1)C(=O)N[C@@H](CCC)C(=O)N[C@@H](C)P(=O)(O)O` [Beispiel 1, (1R)-1-(L-Pyroglutamyl-L-norvalyl-L-norvalylamino)-ethylphosphonsäure], the MIC with S. albus worked out at 16 µg/mL (≈ 36.8 µM); in the test on Shigella spp., 1.1 µg/mL (≈ 2.53 µM); in the test with S. pyogenes, 16 µg/mL (≈ 36.8 µM); in the test on S. marcescens, 30 µg/mL (≈ 69.1 µM); in the test with H. influenzae it was 0.2 µg/mL (≈ 0.46 µM); in the test with S. faecalis, 0.05 µg/mL (≈ 0.115 µM). The MIC turned out to be 16 µg/mL (≈ 36.8 µM) in the test with Klebsiella spp., 0.25 µg/mL (≈ 0.575 µM) against E. coli, 20 µg/mL (≈ 46 µM) in the test on Salmonella spp. and 2.4 µg/mL (≈ 5.52 µM) against S. pneumoniae.
